# According to patent US10143686B2, “Oxidosqualene cyclase as a protein target for anticancer therapeutics” (The Curators of the University of Missouri, priority 2010, dated 2018):
# Structures can show the parent of a compound that is named as a salt. Where two headings read alike, the source gives them in different places.
# Experiments:
# Format in all cases: cell-based
# [1] = tested on: ZR-75 breast cancer cells; test: SRB cell viability assay, ZR-75; conditions: ZR75, ZR-75, Breast (ER+ PR+)
# Method: (§1) The effect of OSC inhibition was evaluated in additional cancer cell lines as well. Cancer cell lines may be purchased from ATCC (Manassas, Va.). The SRB assay has been employed for determination of the inhibitory effects of RO 48-8071 on growth of different cancer cells. Cells were seeded into 96-well plates and incubated overnight at 37° C. with 5% CO2. The culture medium was removed after 24 hours, and cells were washed with DMEM/F12 medium and then treated with various concentrations of RO 48-8071 in 5% FBS culture medium for 24 and 48 hours. Surviving or adherent cells were fixed in situ by withdrawing the growth medium, adding 100 μl PBS and 100 μl 50% trichloroacetic acid and then incubating at 4° C. for one hour. Cells were washed with ice-cold water, dried at room temperature (RT), and then stained with 50 μl 4% SRB for eight minutes at RT. Unbound dye was removed by washing with cold 1% acetic acid for five times, and plates were dried at RT. Bound stain was solubilized with 150 μl 10 mM Tris buffer and absorbance of samples was read at 520 nm with a SpecTRA MAX 190 microplate reader (Molecular Devices, Sunnyvale, Calif.). Six wells were used for each concentration, and each experiment was performed two to three times.
# Effect of RO 48-8071 on estrogen, progesterone, and HER-2/neu receptors positive breast cancer cell line HCC-1428 and ZR-75 viability. […]
# [2] = tested on: NCI-H23 lung cancer cells; test: SRB cell viability assay, NCI-H23; conditions: Homo sapiens
# Method: as §1
# Effect of RO 48-8071 on lung cancer cell line H23 viability. […] The culture mediums employed 10% FBS RPMI-1640 for culture and 5% FBS RPMI-1640 for treatment.
# [3] = tested on: A549 lung cancer cells; test: SRB cell viability assay, A549; conditions: Homo sapiens
# Method: as §1
# Effect of RO 48-8071 on lung cancer cell line A549 viability. […] The culture mediums employed 10% FBS F-12K for culture and 5% FBS F-12K for treatment.
# [4] = tested on: BT-474, MCF-7, BT-20 and MDA-231 human breast cancer cells; test: Annexin V / PI apoptosis assay, breast cancer cells; conditions: 24 hours
# Excerpt: (§2) Apoptosis is a normal physiologic process which occurs during embryonic development as well as in maintenance of tissue homeostasis. The apoptotic program is characterized by certain morphologic features, including loss of plasma membrane asymmetry and attachment, condensation of the cytoplasm and nucleus, and internucleosomal cleavage of DNA. […]. In apoptotic cells, the membrane phospholipid phosphatidylserine (PS) is translocated from the inner to the outer leaflet of the plasma membrane, thereby exposing PS to the external cellular environment. Annexin V is a 35-36 kDa Ca2+ dependent phospholipid-binding protein that has a high affinity for PS, and binds to cells with exposed PS. Annexin V may be conjugated to fluorochromes including FITC. […]
# (§3) FITC Annexin V staining precedes the loss of membrane integrity which accompanies the latest stages of cell death resulting from either apoptotic or necrotic processes. […] However, when apoptosis is measured over time, cells can be often tracked from FITC Annexin V and PI negative (viable, or no measurable apoptosis), to FITC Annexin V positive and PI negative (early apoptosis, membrane integrity is present) and finally to FITC Annexin V and PI positive (end stage apoptosis and death). […]
# [5] = tested on: PC-3 and DU-145 human prostate cancer cells; test: Annexin V / PI apoptosis assay, prostate cancer cells; conditions: 24 hours
# Excerpt: as §2, §3
# [6] = 24 hours, read-out: IC50 (μM) (24 hours)
# [7] = 48 hours, read-out: IC50 (μM) (48 hours)
compound,measurement,setting,value
"C=CCN(C)CCCCCCOc1ccc(C(=O)c2ccc(Br)cc2)c(F)c1 [Ro 48-8071, 4′-[6-(Allylmethylamino)hexyloxy]-4-bromo-2′-fluorobenzophenone fumarate]",IC50,[1]; [6],11 ± 0.289 µM
same,IC50,[1]; [7],7.63 ± 0.304 µM
same,IC50,[2]; [6],14.2 ± 1.28 µM
same,IC50,[2]; [7],10.3 ± 0.303 µM
same,IC50,[3]; [6],13.5 ± 0.928 µM
same,IC50,[3]; [7],9.26 ± 0.454 µM
same,apoptosis and cell death (annexin V / PI positive cells),[4],Induces Apoptosis and Cell Death
same,apoptosis and cell death (annexin V / PI positive cells),[5],Induces Apoptosis and Cell Death
